Results as given in article PMC8868508, “Kassporin-KS1: A Novel Pentadecapeptide from the Skin Secretion of Kassina senegalensis: Studies on the Structure-Activity Relationships of Site-Specific “Glycine-Lysine” Motif Insertions” (Antibiotics, 2022).
In brackets after ≈: the same amount, converted by molar mass. Read-outs that look alike come from different tables or passages of the source. Where a SMILES comes first, the peptide text is derived from it.

Columns and labels:
S. aureus NCTC 10788 [1] = format: cell-based, Staphylococcus aureus
Method: (§1) The inhibition of representative microorganisms by peptides was evaluated by the modified broth dilution technique. The microorganisms included Candida albicans (C. albicans, NCTC 10231), Enterococcus faecalis (E. faecalis, NCTC 12697), Staphylococcus aureus (S. aureus, NCTC 10788), Klebsiella pneumoniae (K. pneumoniae, ATCC 43816), Methicillin-resistant Staphylococcus aureus (MRSA, ATCC 12493), Pseudomonas aeruginosa (P. aeruginosa, ATCC 27853), and Escherichia coli (E. coli, NCTC 10418).
(§2) Firstly, the selected microorganism was incubated in conical flasks with 100 mL Mueller Hinton broth (MHB) overnight. Then, the bacterial solution was sub-cultured in 20 mL MHB until it reached the logarithmic growth phase. Meanwhile, the peptide solution was prepared. The peptide was dissolved into 128 × 10^2 μM solution with phosphate-buffered saline (PBS) and then double-diluted into 64, 32, 16, 8, 4, 2, and 1 × 10^2 μM. Each sample solution and positive control ([…] Norfloxacin) was added to 96-well plates and divided into five replicates, 1 μL per well. The blank control was 100 µL MHB, and the growth control was 100 µL bacterial solutions. When the optical density (OD) value corresponding to the microbial concentration reached the value (Gram-positive bacteria: 0.23; Gram-negative bacteria: 0.4; fungi: 0.15) in their logarithmic growth phase, the microorganisms were diluted to the required concentration with MHB (Gram-negative and Gram-positive bacteria: 5 × 10^5 CFU/mL; fungi: 1 × 10^6 CFU/mL).
(§3) The diluted bacterial solution was then added to the 96-well plate at 99 µL per well. The plate was incubated at 37 °C and observed the next day. The MIC was the corresponding lowest peptide concentration without microbial growth. The absorbance of the 96-well plate at 550 nm was measured by Synergy HT Microplate Spectrophotometer (Biotech, Minneapolis, MN, USA), and the obtained values were quantitatively analyzed by Prism 7 software. Subsequently, the concentrations corresponding to the clear solution were removed from the 96-well plate in 10 µL and dropped onto the solidified MHA. The Petri dishes with MHA were cultured overnight, observed and the minimum peptide concentration without colonies was MBC.

E. coli NCTC 10418 = format: cell-based, Escherichia coli
Method: as §1, §2, §3

C. albicans NCTC 10231 = format: cell-based, Candida albicans
Method: as §1, §2, §3

MRSA NCTC 12493 = format: cell-based, Methicillin-resistant Staphylococcus aureus
K. pneumoniae ATCC 43816 = format: cell-based, Klebsiella pneumoniae
Method: as §1, §2, §3

E. faecalis NCTC 12697 = format: cell-based, Enterococcus faecalis
Method: as §1, §2, §3

P. aeruginosa ATCC 27853 = format: cell-based, Pseudomonas aeruginosa
Method: as §1, §2, §3

[2] = test system: S. aureus NCTC 10788 biofilm; format: cell-based, Staphylococcus aureus; conditions: NCTC 10788, 24 h
Method: (§4) As previously described, the MBIC and MBEC of the peptides against bacteria were determined. Staphylococcus aureus (S. aureus, NCTC 10788) and Escherichia coli (E. coli, NCTC 10418) was selected as representative strains. For the MBIC assay, the cultures were sub-cultured to their logarithmic growth phases. The diluted bacterial suspension was incubated with the peptide solution overnight in a 96-well plate. The resulting biofilm was washed with PBS solution, fixed with methanol, and dried. The biofilm was then stained with 0.1% (w/v) crystal violet, washed again with PBS, and dissolved in 30% acetic acid. The absorbance of the solution in each well at 595 nm was counted by the Synergy HT Microplate Spectrophotometer (Biotech, Minneapolis, MN, USA). Compared with the negative control, the lowest concentration that inhibits biofilm formation was MBIC. For the determination of MBEC, the diluted bacterial solution was incubated in the 96-well plate for 24 h, with 100 µL per well. Then, the biofilm was washed and re-incubated with 100 µL peptide-medium solution. After 24 h, the biofilm was again washed, stained, and dissolved as in the MBIC assay. Each well was detected at 595 nm by the same plate reader in MBIC. Compared with the negative control, the lowest concentration to eliminate biofilm was MBEC.

[3] = test system: E. coli NCTC 10418 biofilm; format: cell-based, Escherichia coli; conditions: NCTC 10418, 24 h
Method: as §4

S. aureus NCTC 10788 [4] = format: cell-based, Staphylococcus aureus; remark: listed apart in the source
Method: As mentioned in the previous study, the salt and pH sensitivities of AMPs exposed to physiological concentrations of salts or non-neutral environments were tested. MHB containing different ion concentrations (150 mM NaCl, 1 mM MgCl2, and 4 μM FeCl3) and MHB with pH 6.0 and pH 8.0 were prepared. The selected microorganism Staphylococcus aureus (S. aureus, NCTC 10788) was incubated overnight in the prepared medium, sub-cultured to the logarithmic phase, and then diluted to 5 × 10^5 CFU/mL. The subsequent steps were carried out as the MIC/MBC assay.

| Compound | MBC (S. aureus NCTC 10788 [1]) [µM] | MIC (S. aureus NCTC 10788 [1]) [µM] | MBC (E. coli NCTC 10418) [µM] | MIC (E. coli NCTC 10418) [µM] | MBC (C. albicans NCTC 10231) [µM] | MIC (C. albicans NCTC 10231) [µM] | MBC (MRSA NCTC 12493) [µM] | MIC (MRSA NCTC 12493) [µM] | MBC (K. pneumoniae ATCC 43816) [µM] | MIC (K. pneumoniae ATCC 43816) [µM] | MBC (E. faecalis NCTC 12697) [µM] | MIC (E. faecalis NCTC 12697) [µM] | MBC (P. aeruginosa ATCC 27853) [µM] | MIC (P. aeruginosa ATCC 27853) [µM] | MBEC [2] | MBEC [3] | MBIC [3] | MBIC [2] | MBC (S. aureus NCTC 10788 [4]) [µM] | MIC (S. aureus NCTC 10788 [4]) [µM] |
| --- | --- | --- | --- | --- | --- | --- | --- | --- | --- | --- | --- | --- | --- | --- | --- | --- | --- | --- | --- | --- |
| CC[C@H](C)[C@H](NC(=O)[C@H](C)NC(=O)CNC(=O)CNC(=O)[C@@H](NC(=O)[C@H](CC(C)C)NC(=O)[C@H](C)NC(=O)[C@H](CC(C)C)NC(=O)[C@H](C)NC(=O)[C@H](CC(C)C)NC(=O)[C@@H](N)Cc1ccccc1)[C@@H](C)CC)C(=O)N[C@@H](C)C(=O)N[C@@H](CCCCN)C(=O)N[C@@H](CC(C)C)C(=O)N[C@@H](CCCCN)C(N)=O [QUB-1498] (H-FLALALIGGAIAKLK-NH2) | 16 | 16 | > 128 | 32 | > 128 | 32 | > 128 | 128 (≈ 192 µg/mL) | > 128 | > 128 | 64 | 32 | > 128 | > 128 | 128 µM | >128/>128 µM | >128/>128 µM |  |  |  |
| CC[C@H](C)[C@H](NC(=O)[C@H](C)NC(=O)[C@H](CCCCN)NC(=O)CNC(=O)[C@@H](NC(=O)[C@H](CC(C)C)NC(=O)[C@H](C)NC(=O)[C@H](CC(C)C)NC(=O)[C@H](C)NC(=O)[C@H](CC(C)C)NC(=O)[C@@H](N)Cc1ccccc1)[C@@H](C)CC)C(=O)N[C@@H](C)C(=O)N[C@@H](CCCCN)C(=O)N[C@@H](CC(C)C)C(=O)N[C@@H](CCCCN)C(N)=O [QUB-1570] (H-FLALALIGKAIAKLK-NH2) | 8 | 2 | 32 | 16 | 8 | 8 | 8 (≈ 12.6 µg/mL) | 4 (≈ 6.28 µg/mL) | 32 | 32 | 8 | 8 | > 128 | > 128 |  | 64 µM | 32 µM | 4 µM |  |  |
| CC[C@H](C)[C@H](NC(=O)[C@H](C)NC(=O)[C@H](CCC(=O)O)NC(=O)[C@H](CCCCN)NC(=O)CNC(=O)[C@H](CC(C)C)NC(=O)[C@H](C)NC(=O)[C@H](CC(C)C)NC(=O)[C@H](C)NC(=O)[C@H](CC(C)C)NC(=O)[C@@H](N)Cc1ccccc1)C(=O)N[C@@H](C)C(=O)N[C@@H](CCCCN)C(=O)N[C@@H](CC(C)C)C(=O)N[C@@H](CCCCN)C(N)=O [QUB-1585] (H-FLALALGKEAIAKLK-NH2) | 64 | 32 | 128 | 64 | 128 | 64 | 128 (≈ 203 µg/mL) | 64 (≈ 101 µg/mL) | > 128 | > 128 | > 128 | 128 | > 128 | > 128 | 128 µM | 128/128 µM | 128/128 µM | 64 µM | > 128 |  |
| CC[C@H](C)[C@H](NC(=O)[C@H](C)NC(=O)[C@H](CCC(=O)O)NC(=O)[C@H](CCC(N)=O)NC(=O)[C@H](CCCCN)NC(=O)CNC(=O)[C@H](C)NC(=O)[C@H](CC(C)C)NC(=O)[C@H](C)NC(=O)[C@H](CC(C)C)NC(=O)[C@@H](N)Cc1ccccc1)C(=O)N[C@@H](C)C(=O)N[C@@H](CCCCN)C(=O)N[C@@H](CC(C)C)C(=O)N[C@@H](CCCCN)C(N)=O [QUB-1599] (H-FLALAGKQEAIAKLK-NH2) | > 128 | > 128 | > 128 | > 128 | > 128 | > 128 | > 128 | > 128 | > 128 | > 128 | > 128 | > 128 | > 128 | > 128 | >128/>128 µM | >128/>128 µM | >128/>128 µM | >128/>128 µM | > 128 | > 128 |
| CC[C@H](C)[C@H](NC(=O)[C@H](C)NC(=O)[C@H](CCCCN)NC(=O)[C@@H]1CCCN1C(=O)[C@@H](NC(=O)[C@H](CC(C)C)NC(=O)[C@H](C)NC(=O)[C@H](CC(C)C)NC(=O)[C@H](C)NC(=O)[C@H](CC(C)C)NC(=O)[C@@H](N)Cc1ccccc1)[C@@H](C)CC)C(=O)N[C@@H](C)C(=O)N[C@@H](CCCCN)C(=O)N[C@@H](CC(C)C)C(=O)N[C@@H](CCCCN)C(N)=O [QUB-1609] (H-FLALALIPKAIAKLK-NH2) | 32 | 8 | 64 | 8 | 32 | 16 | 16 (≈ 25.7 µg/mL) | 8 (≈ 12.9 µg/mL) | > 128 | 128 | 64 | 16 | > 128 | > 128 | 128 µM | 128 µM | 64 µM | 16 µM |  |  |
| CC[C@H](C)[C@H](NC(=O)[C@H](C)NC(=O)[C@H](CCC(=O)O)NC(=O)[C@H](CCC(N)=O)NC(=O)[C@@H](NC(=O)[C@H](CC(C)C)NC(=O)[C@H](CCCCN)NC(=O)CNC(=O)[C@H](C)NC(=O)[C@H](CC(C)C)NC(=O)[C@@H](N)Cc1ccccc1)[C@@H](C)CC)C(=O)N[C@@H](C)C(=O)N[C@@H](CCCCN)C(=O)N[C@@H](CC(C)C)C(=O)N[C@@H](CCCCN)C(N)=O [QUB-1643] (H-FLAGKLIQEAIAKLK-NH2) | 64 | 32 | > 128 | 128 | 128 | 64 | 128 (≈ 210 µg/mL) | 64 (≈ 105 µg/mL) | > 128 | > 128 | > 128 | 128 | > 128 | > 128 | 128/>128 µM | >128/>128 µM | >128/>128 µM | 128/>128 µM |  |  |
